Results on five compounds are retold here after patent US20130310416A1, “Methods and Compositions for Preventing or Treating Age-Related Diseases” (Tartis-Aging, LLC, priority 2006, published 2013).

Molecules are shown by their SMILES.

The test system of series [1] is tumor growth. Conditions: in vitro and in vivo models; cited from earlier work.
For series [2], the system named is WI-38 fibroblasts. The series can be described thus: doxorubicin exposure, induction of cell senescence. It counts as cell-based, human. Particulars: exposure to doxorubicin, FIG. 2. As to the method: To illustrate the relationship between the TOR pathway and cell senescence, experiments were performed using WI-38 fibroblasts, a cell line that is commonly used to investigate cell senescence (Sarraj et al., 2001). […] Cell senescence is characterized by a large and flat cell morphology, beta-galactosidase expression in the cytoplasm as a terminal, non-replicative condition.

Series [3] has as its system rodents. Particulars: rodents (Anisimov et al., 2005); cited from earlier work.
For series [4] the following is noted: rapamycin administration (Kahan, 2004; Rodriguez et al., 2006); cited from earlier work.

For `CO[C@H]1C[C@@H]2CC[C@@H](C)[C@@](O)(O2)C(=O)C(=O)N2CCCC[C@H]2C(=O)O[C@H]([C@H](C)C[C@@H]2CC[C@@H](OC(=O)C(C)(CO)CO)[C@H](OC)C2)CC(=O)[C@H](C)/C=C(\C)[C@@H](O)[C@@H](OC)C(=O)[C@H](C)C[C@H](C)/C=C/C=C/C=C/1C` [CCI-779, Rapamycin 42-ester with 3-hydroxy-2-(hydroxymethyl)-2-methylpropionic acid], the “effect on tumor growth” value in series [1] is on record as “significant inhibitory effects on tumor growth”. For `COc1cccc2c1C(=O)c1c(O)c3c(c(O)c1C2=O)C[C@@](O)(C(=O)CO)C[C@@H]3O[C@H]1C[C@H](N)[C@H](O)[C@H](C)O1` [doxorubicin], the “induction of cell senescence” value in series [2] is given as “induces accelerated cell senescence”.

Regarding `CN(C)C(=N)N=C(N)N` [metformin], in series [3], the life span entry is recorded as “extend life span”.

As for `[H]/N=C(/N)N/C(=N/[H])NCCc1ccccc1` [phenformin], the life span entry in series [3] was “extend life span”. Consider `CO[C@H]1C[C@@H]2CC[C@@H](C)[C@@](O)(O2)C(=O)C(=O)N2CCCC[C@H]2C(=O)O[C@H]([C@H](C)C[C@@H]2CC[C@@H](O)[C@H](OC)C2)CC(=O)[C@H](C)/C=C(\C)[C@@H](O)[C@@H](OC)C(=O)[C@H](C)C[C@H](C)/C=C/C=C/C=C/1C` [rapamycin], for which the “most common side effect” value in series [4] is “increase of blood lipids”.
